Laboratory results taken from article PMC11020070, “Discovery of Protease-Activated Receptor 4 (PAR4)-Tethered Ligand Antagonists Using Ultralarge Virtual Screening” (ACS Pharmacology & Translational Science, 2024).
Entries after “also recorded” stand apart in the source; their conditions may differ.

Experiments:
Assay type in all cases: cell-based
PAR4 [1] = target: T1, PAR4 (Homo sapiens, UniProt Q96RI0); assay: Human platelet activation by PAR4 agonist peptide (PAR4-AP, AYPGKF); parameters: endogenous in cells; host or cells: platelets; details: 10 μM compound, 200 μM AYPGKF
T1 sequence (Q96RI0 18-385): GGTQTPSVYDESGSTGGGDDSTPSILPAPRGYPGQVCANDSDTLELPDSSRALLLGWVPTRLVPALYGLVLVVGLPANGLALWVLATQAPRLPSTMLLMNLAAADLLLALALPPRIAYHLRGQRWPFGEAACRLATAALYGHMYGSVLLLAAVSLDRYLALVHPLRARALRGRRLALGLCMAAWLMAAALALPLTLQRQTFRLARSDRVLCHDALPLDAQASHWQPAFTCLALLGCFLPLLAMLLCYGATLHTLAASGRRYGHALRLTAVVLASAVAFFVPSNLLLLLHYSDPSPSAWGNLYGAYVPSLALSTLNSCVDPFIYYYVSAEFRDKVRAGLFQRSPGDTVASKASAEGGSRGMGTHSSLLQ
Experimental: To test the antagonistic effect of the compounds on PAR4, a flow cytometry assay of human platelets was employed. Each compound was screened at 10 μM in human platelets using flow cytometry for GPIIbIIIa activation (PAC1) and P-selectin (CD62p) expression as previously described.[4] Activation of GPIIbIIIa allows interaction with divalent fibrinogen or multivalent von Willebrand factor, leading to platelet aggregation.[41] PAR4 stimulation also triggers α-granule secretion containing P-selectin.[5] […] Platelets were treated with each test compound or vehicle control DMSO before activating with γ-thrombin (100 nM) or PAR4 agonist peptide mimetic (200 μM, “PAR4-AP” AYPGKF) for 30 min. γ-thrombin activates PAR4 but not PAR1.[42] […]
Activation of washed human platelets was monitored by flow cytometry for the detection of PAC1 (GPIIbIIIa activation) and CD62p (P-selectin expression) binding as previously described.[4] […] Platelets were collected, counted on a Z1 Coulter Particle Counter (Beckman Coulter, Brea, CA), and diluted in TBB to 1.5 × 10^7 platelets/mL. […] Data were collected on a three-laser BD LSRFortessa (Becton Dickinson) and analyzed with FlowJo software (FlowJo LLC, Ashland, OR). The mean fluorescence intensity (geometric) of PE and FITC was determined from 30,000 events after compensation correction. […]

PAR1 = target: T2, PAR1 (Homo sapiens, UniProt P25116); assay: PAR1 component of α-thrombin activation (α-thrombin + BMS-3) in platelets; details: read-out: PAR1 IC50 (Figure 6D)
T2 construct: endogenous in cells; host or cells: platelets
T2 sequence (P25116 22-425): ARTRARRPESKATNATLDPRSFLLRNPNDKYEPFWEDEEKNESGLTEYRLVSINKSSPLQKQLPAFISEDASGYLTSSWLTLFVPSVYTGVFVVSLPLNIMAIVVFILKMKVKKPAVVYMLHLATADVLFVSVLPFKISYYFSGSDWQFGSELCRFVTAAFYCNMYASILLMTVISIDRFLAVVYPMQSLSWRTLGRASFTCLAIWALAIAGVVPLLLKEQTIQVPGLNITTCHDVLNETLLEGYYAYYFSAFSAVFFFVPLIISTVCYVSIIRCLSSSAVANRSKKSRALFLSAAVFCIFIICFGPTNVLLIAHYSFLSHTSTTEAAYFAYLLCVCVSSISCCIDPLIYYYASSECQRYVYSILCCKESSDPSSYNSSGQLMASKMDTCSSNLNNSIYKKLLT
Text: Figure 6 (A) Distribution of IC50 values for the inhibition of human PAR4 vs mouse PAR4. Red indicates the 2 compounds highlighted in panels (B–D). (B) Structures of exemplar compounds. (C) Concentration–response curves for human vs mouse PAR4. (D) Concentration–response curves for the inhibition of pharmacologically defined α-thrombin components for PAR1 (α-thrombin + BMS-3) vs PAR4 (α-thrombin + vorapaxar).
α-thrombin activates both PAR1 and PAR4, and the individual PAR1 or PAR4 component can be isolated pharmacologically. […] With 20 substitutions between PAR1 and PAR4 within 5 Å of the predicted 31 binding site, the basis for these selectivity differences is not known (Figure S4). As we continue to probe for a selective PAR4 antagonist, mutagenesis of individual residues will be conducted.

PAR4 [2] = target: T1, PAR4; assay: Schild analysis, progressive fold-shift against γ-thrombin in platelets; parameters: endogenous in cells; host or cells: platelets; details: for mode of inhibition: against γ-thrombin activation; for Schild plot slope m: slope of linear regression, γ-thrombin, 20 min pretreatment
Experimental: A Schild analysis was performed on compounds 12 and 31 to determine the mode of inhibition of these compounds.
Figure 7 Schild analysis progressive fold-shift experiments. (A) Platelets were pretreated with increasing concentrations of each antagonist for 20 min prior to activation with increasing concentrations of γ-thrombin. (B) Logarithmic transformation of the dose ratio plotted versus the logarithm of compound concentration. m = slope of linear regression. TEXT PRINTED IN THE PICTURE: (B) 12: m = 0.99 | (D) 31: m = 0.95

| SMILES | inhibition of PAR4 agonist peptide activation (PAR4 [1]) | IC50 (PAR1) [µM] | mode of inhibition (PAR4 [2]) | Schild plot slope m (PAR4 [2]) |
| --- | --- | --- | --- | --- |
| Cc1nc(NC(=O)c2cc(-c3ccccc3)n(-c3ccccc3)n2)n[nH]1 [Compound 7] | not inhibiting; also recorded: did not inhibit | – | – | – |
| Cn1nc(C(=O)Nc2n[nH]c(-c3c(F)cccc3F)n2)cc1C1CC1 [Compound 12] | – | 5.81 | competitive | 0.99 |
| O=C(Nc1n[nH]c(-c2ccc(F)cc2F)n1)c1nn(-c2ccccc2)c2c1CCCC2 [Compound 31] | – | 1.51 | competitive | 0.95 |
